Values of other authors, collected in patent US20260283918A1, “AZELAIC ACID/BETAINE/PANTHENOL SELF-RECOGNITION DES SYSTEM AND PREPARATION METHOD” (Wuxi Zhiyan Biotechnology Co., LTD, priority 2023, published 2026).

Conditions: water and oil

solubility of azelaic acid: poor solubility in both water and oil
Structure (SMILES): O=C(O)CCCCCCCC(=O)O [azelaic acid]
